Measurements from patent US10538555B2, “Macrocyclic inhibitors of the PD-1/PD-L1 and CD80(B7-1)/PD-L1 protein/protein interactions” (BRISTOL-MYERS SQUIBB COMPANY, priority 2014, dated 2020).
Where a SMILES comes first, the peptide text is derived from it. Bridges are numbered along the chain shown (N, C = ends). [ ]: non-standard residue; d: D form. Hyp = O=C(O)[C@@H]1C[C@@H](O)CN1; NMeNle = CCCC[C@H](NC)C(=O)O; NMeA = CN[C@@H](C)C(=O)O; Orn = NCCC[C@H](N)C(=O)O; Dab = NCC[C@H](N)C(=O)O; Dap = NC[C@H](N)C(=O)O

These molecules were tested against T1, Human PD-L1/PD-1 (Homo sapiens, UniProt Q9NZQ7) (assay: HTRF Human PD-L1/PD-1 binding assay (PD-1-Ig/PD-L1-His)). Settings: PD-L1-His 10 nM, PD-1-Ig 20 nM; class symbol; read-out: HTRF Human PD-L1/PD-1 Binding Assay IC50 Range.
T1 construct: TVMV protease cleavage site (C); made in house; host or cells: HEK293T cells
T1 sequence (Q9NZQ7 with tags, fused parts or gaps): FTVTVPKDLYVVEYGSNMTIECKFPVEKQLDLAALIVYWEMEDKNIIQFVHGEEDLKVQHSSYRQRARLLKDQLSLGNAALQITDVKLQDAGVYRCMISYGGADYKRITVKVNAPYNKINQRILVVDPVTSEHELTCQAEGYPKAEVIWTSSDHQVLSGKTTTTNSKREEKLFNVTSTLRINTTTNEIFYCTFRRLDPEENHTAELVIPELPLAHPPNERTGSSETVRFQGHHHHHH
In short: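 Competition of macrocyclic peptides for PD-1/PD-L1 binding measured by HTRF in dPBS containing 0.1% BSA and 0.05% Tween-20. Compound and PD-L1-His (10 nM final) incubated 15 min before PD-1-Ig (20 nM final) and a further 15 min.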

IC50	SMILES
1 to 9.9 nM	CCCC[C@H]1C(=O)N(C)[C@@H](CCCC)C(=O)N[C@@H](CCC(=O)O)C(=O)N[C@H](C(=O)NCC(N)=O)CSCC(=O)N[C@@H](Cc2ccc(OC)cc2)C(=O)N(C)[C@@H](C)C(=O)N[C@@H](CCN)C(=O)N2CCC[C@H]2C(=O)N[C@@H](CN)C(=O)N[C@@H](CCC(=O)O)C(=O)N2C[C@H](O)C[C@H]2C(=O)N[C@@H](Cc2c[nH]c3ccccc23)C(=O)N[C@@H](CCN)C(=O)N[C@@H](Cc2c[nH]c3ccccc23)C(=O)N1C [Example 7112] ({CH2CO}-Y(Me)[NMeA][Dab]P[Dap]E[Hyp]W[Dab]W[NMeNle][NMeNle]ECG-NH2; thioether N-14)
1 to 9.9 nM	CCCC[C@H]1C(=O)N(C)[C@@H](CCCC)C(=O)N[C@@H](CCC(=O)O)C(=O)N[C@H](C(=O)NCC(N)=O)CSCC(=O)N[C@@H](Cc2ccc(OC)cc2)C(=O)N(C)[C@@H](C)C(=O)N[C@@H](CC(=O)O)C(=O)N2CCC[C@H]2C(=O)N[C@@H](CN)C(=O)N[C@@H](CCC(=O)O)C(=O)N2C[C@H](O)C[C@H]2C(=O)N[C@@H](Cc2c[nH]c3ccccc23)C(=O)N[C@@H](CCN)C(=O)N[C@@H](Cc2c[nH]c3ccccc23)C(=O)N1C [Example 7113] ({CH2CO}-Y(Me)[NMeA]DP[Dap]E[Hyp]W[Dab]W[NMeNle][NMeNle]ECG-NH2; thioether N-14)
100 to 990 nM	CCCC[C@H]1C(=O)N(C)[C@@H](CCCC)C(=O)N[C@@H](CCC(=O)O)C(=O)N[C@H](C(=O)NCC(N)=O)CSCC(=O)N[C@@H](Cc2ccc(OC)cc2)C(=O)N(C)[C@@H](C)C(=O)N[C@@H](CCN)C(=O)N2CCC[C@H]2C(=O)N[C@@H](CN)C(=O)N[C@@H](CCC(=O)O)C(=O)N2C[C@H](O)C[C@H]2C(=O)N[C@@H](Cc2c[nH]c3ccccc23)C(=O)N[C@@H](CC(=O)O)C(=O)N[C@@H](Cc2c[nH]c3ccccc23)C(=O)N1C [Example 7114] ({CH2CO}-Y(Me)[NMeA][Dab]P[Dap]E[Hyp]WDW[NMeNle][NMeNle]ECG-NH2; thioether N-14)
100 to 990 nM	CCCC[C@H]1C(=O)N(C)[C@@H](CCCC)C(=O)N[C@@H](CCC(=O)O)C(=O)N[C@H](C(=O)NCC(N)=O)CSCC(=O)N[C@@H](Cc2ccc(OC)cc2)C(=O)N(C)[C@@H](C)C(=O)N[C@@H](CC(N)=O)C(=O)N2CCC[C@H]2C(=O)N[C@@H](Cc2cnc[nH]2)C(=O)N[C@@H](CCCCN)C(=O)N2C[C@H](O)C[C@H]2C(=O)N[C@@H](Cc2c[nH]c3ccccc23)C(=O)N[C@@H](CC(=O)O)C(=O)N[C@@H](Cc2c[nH]c3ccccc23)C(=O)N1C [Example 7115] ({CH2CO}-Y(Me)[NMeA]NPHK[Hyp]WDW[NMeNle][NMeNle]ECG-NH2; thioether N-14)
10 to 99.9 nM	CCCC[C@H]1C(=O)N(C)[C@@H](CCCC)C(=O)N[C@@H](CCC(=O)O)C(=O)N[C@H](C(=O)NCC(N)=O)CSCC(=O)N[C@@H](Cc2ccc(OC)cc2)C(=O)N(C)[C@@H](C)C(=O)N[C@@H](CC(N)=O)C(=O)N2CCC[C@H]2C(=O)N[C@@H](CN)C(=O)N[C@@H](CCC(=O)O)C(=O)N2C[C@H](O)C[C@H]2C(=O)N[C@@H](Cc2c[nH]c3ccccc23)C(=O)N[C@@H](CC(=O)O)C(=O)N[C@@H](Cc2c[nH]c3ccccc23)C(=O)N1C [Example 7117] ({CH2CO}-Y(Me)[NMeA]NP[Dap]E[Hyp]WDW[NMeNle][NMeNle]ECG-NH2; thioether N-14)
1 to 9.9 nM	CCCC[C@H]1C(=O)N(C)[C@@H](CCCC)C(=O)N[C@@H](CCC(=O)O)C(=O)N[C@H](C(=O)NCC(N)=O)CSCC(=O)N[C@@H](Cc2ccc(OC)cc2)C(=O)N(C)[C@@H](C)C(=O)N[C@@H](CC(N)=O)C(=O)N2CCC[C@H]2C(=O)N[C@@H](Cc2cnc[nH]2)C(=O)N[C@@H](CCCCN)C(=O)N2C[C@H](O)C[C@H]2C(=O)N[C@@H](Cc2c[nH]c3ccccc23)C(=O)N[C@@H](CCN)C(=O)N[C@@H](Cc2c[nH]c3ccccc23)C(=O)N1C [Example 7118] ({CH2CO}-Y(Me)[NMeA]NPHK[Hyp]W[Dab]W[NMeNle][NMeNle]ECG-NH2; thioether N-14)
1 to 9.9 nM	CCCC[C@H]1C(=O)N(C)[C@@H](CCCC)C(=O)N[C@@H](CCC(=O)O)C(=O)N[C@H](C(=O)NCC(N)=O)CSCC(=O)N[C@@H](Cc2ccc(OC)cc2)C(=O)N(C)[C@@H](C)C(=O)N[C@@H](CC(=O)O)C(=O)N2CCC[C@H]2C(=O)N[C@@H](Cc2cnc[nH]2)C(=O)N[C@@H](CCCCN)C(=O)N2C[C@H](O)C[C@H]2C(=O)N[C@@H](Cc2c[nH]c3ccccc23)C(=O)N[C@@H](CCN)C(=O)N[C@@H](Cc2c[nH]c3ccccc23)C(=O)N1C [Example 7119] ({CH2CO}-Y(Me)[NMeA]DPHK[Hyp]W[Dab]W[NMeNle][NMeNle]ECG-NH2; thioether N-14)

More lines, now with the values behind:

SMILES	IC50
CCCC[C@H]1C(=O)N(C)[C@@H](CCCC)C(=O)N[C@@H](CCCN)C(=O)N[C@H](C(=O)NCC(N)=O)CSCC(=O)N[C@@H](Cc2ccc(OC)cc2)C(=O)N(C)[C@@H](C)C(=O)N[C@@H](CCN)C(=O)N2CCC[C@H]2C(=O)N[C@@H](CN)C(=O)N[C@@H](CCC(=O)O)C(=O)N2C[C@H](O)C[C@H]2C(=O)N[C@@H](Cc2c[nH]c3ccccc23)C(=O)N[C@@H](CC(=O)O)C(=O)N[C@@H](Cc2c[nH]c3ccccc23)C(=O)N1C [Example 7105] ({CH2CO}-Y(Me)[NMeA][Dab]P[Dap]E[Hyp]WDW[NMeNle][NMeNle][Orn]CG-NH2; thioether N-14)	10 to 99.9 nM
CCCC[C@H]1C(=O)N(C)[C@@H](CCCC)C(=O)N[C@@H](CCCN)C(=O)N[C@H](C(=O)NCC(N)=O)CSCC(=O)N[C@@H](Cc2ccc(OC)cc2)C(=O)N(C)[C@@H](C)C(=O)N[C@@H](CC(=O)O)C(=O)N2CCC[C@H]2C(=O)N[C@@H](Cc2cnc[nH]2)C(=O)N[C@@H](CCCCN)C(=O)N2C[C@H](O)C[C@H]2C(=O)N[C@@H](Cc2c[nH]c3ccccc23)C(=O)N[C@@H](CC(=O)O)C(=O)N[C@@H](Cc2c[nH]c3ccccc23)C(=O)N1C [Example 7106] ({CH2CO}-Y(Me)[NMeA]DPHK[Hyp]WDW[NMeNle][NMeNle][Orn]CG-NH2; thioether N-14)	1 to 9.9 nM
CCCC[C@H]1C(=O)N(C)[C@@H](CCCC)C(=O)N[C@@H](CCCN)C(=O)N[C@H](C(=O)NCC(N)=O)CSCC(=O)N[C@@H](Cc2ccc(OC)cc2)C(=O)N(C)[C@@H](C)C(=O)N[C@@H](CC(N)=O)C(=O)N2CCC[C@H]2C(=O)N[C@@H](CN)C(=O)N[C@@H](CCCCN)C(=O)N2C[C@H](O)C[C@H]2C(=O)N[C@@H](Cc2c[nH]c3ccccc23)C(=O)N[C@@H](CC(=O)O)C(=O)N[C@@H](Cc2c[nH]c3ccccc23)C(=O)N1C [Example 7108] ({CH2CO}-Y(Me)[NMeA]NP[Dap]K[Hyp]WDW[NMeNle][NMeNle][Orn]CG-NH2; thioether N-14)	1 to 9.9 nM
CCCC[C@H]1C(=O)N(C)[C@@H](CCCC)C(=O)N[C@@H](CCC(=O)O)C(=O)N[C@H](C(=O)NCC(N)=O)CSCC(=O)N[C@@H](Cc2ccc(OC)cc2)C(=O)N(C)[C@@H](C)C(=O)N[C@@H](CC(N)=O)C(=O)N2CCC[C@H]2C(=O)N[C@@H](Cc2cnc[nH]2)C(=O)N[C@@H](CCC(=O)O)C(=O)N2C[C@H](O)C[C@H]2C(=O)N[C@@H](Cc2c[nH]c3ccccc23)C(=O)N[C@@H](CCN)C(=O)N[C@@H](Cc2c[nH]c3ccccc23)C(=O)N1C [Example 7109] ({CH2CO}-Y(Me)[NMeA]NPHE[Hyp]W[Dab]W[NMeNle][NMeNle]ECG-NH2; thioether N-14)	1 to 9.9 nM
CCCC[C@H]1C(=O)N(C)[C@@H](CCCC)C(=O)N[C@@H](CCC(=O)O)C(=O)N[C@H](C(=O)NCC(N)=O)CSCC(=O)N[C@@H](Cc2ccc(OC)cc2)C(=O)N(C)[C@@H](C)C(=O)N[C@@H](CC(=O)O)C(=O)N2CCC[C@H]2C(=O)N[C@@H](Cc2cnc[nH]2)C(=O)N[C@@H](CCC(=O)O)C(=O)N2C[C@H](O)C[C@H]2C(=O)N[C@@H](Cc2c[nH]c3ccccc23)C(=O)N[C@@H](CCN)C(=O)N[C@@H](Cc2c[nH]c3ccccc23)C(=O)N1C [Example 7110] ({CH2CO}-Y(Me)[NMeA]DPHE[Hyp]W[Dab]W[NMeNle][NMeNle]ECG-NH2; thioether N-14)	1 to 9.9 nM
CCCC[C@H]1C(=O)N(C)[C@@H](CCCC)C(=O)N[C@@H](CCC(=O)O)C(=O)N[C@H](C(=O)NCC(N)=O)CSCC(=O)N[C@@H](Cc2ccc(OC)cc2)C(=O)N(C)[C@@H](C)C(=O)N[C@@H](CCN)C(=O)N2CCC[C@H]2C(=O)N[C@@H](Cc2cnc[nH]2)C(=O)N[C@@H](CCC(=O)O)C(=O)N2C[C@H](O)C[C@H]2C(=O)N[C@@H](Cc2c[nH]c3ccccc23)C(=O)N[C@@H](CCN)C(=O)N[C@@H](Cc2c[nH]c3ccccc23)C(=O)N1C [Example 7111] ({CH2CO}-Y(Me)[NMeA][Dab]PHE[Hyp]W[Dab]W[NMeNle][NMeNle]ECG-NH2; thioether N-14)	1 to 9.9 nM

Same assay, conditions: PD-L1-His 10 nM, PD-1-Ig 20 nM; read-out: HTRF Human PD-L1/PD-1 Binding Assay IC50

IC50	SMILES
304 nM	CCCC[C@H]1C(=O)N(C)[C@@H](CCCC)C(=O)N[C@@H](CCCN)C(=O)N[C@H](C(=O)NCC(N)=O)CSCC(=O)N[C@@H](Cc2ccc(OC)cc2)C(=O)N(C)[C@@H](C)C(=O)N[C@@H](CCN)C(=O)N2CCC[C@H]2C(=O)N[C@@H](Cc2cnc[nH]2)C(=O)N[C@@H](CCCCN)C(=O)N2C[C@H](O)C[C@H]2C(=O)N[C@@H](Cc2c[nH]c3ccccc23)C(=O)N[C@@H](CC(=O)O)C(=O)N[C@@H](Cc2c[nH]c3ccccc23)C(=O)N1C [Example 7107] ({CH2CO}-Y(Me)[NMeA][Dab]PHK[Hyp]WDW[NMeNle][NMeNle][Orn]CG-NH2; thioether N-14)
1000 nM	CCCC[C@H]1C(=O)N(C)[C@@H](CCCC)C(=O)N[C@@H](CCC(=O)O)C(=O)N[C@H](C(=O)NCC(N)=O)CSCC(=O)N[C@@H](Cc2ccc(OC)cc2)C(=O)N(C)[C@@H](C)C(=O)N[C@@H](CCN)C(=O)N2CCC[C@H]2C(=O)N[C@@H](CN)C(=O)N[C@@H](CCCCN)C(=O)N2C[C@H](O)C[C@H]2C(=O)N[C@@H](Cc2c[nH]c3ccccc23)C(=O)N[C@@H](CC(=O)O)C(=O)N[C@@H](Cc2c[nH]c3ccccc23)C(=O)N1C [Example 7116] ({CH2CO}-Y(Me)[NMeA][Dab]P[Dap]K[Hyp]WDW[NMeNle][NMeNle]ECG-NH2; thioether N-14)
